Tests used:
RET = target: T1, RET (Homo sapiens, UniProt P07949); assay: ScanEDGE kinase panel (DiscoverX); format: binding; conditions: read-out: % of control activity at 71 nM
T1 construct: T7 phage fusion (most kinases) or DNA tag after HEK-293 expression; purchased DiscoverX (Fremont, CA), ScanEDGE; host or cells: T7 phage in E. coli BL21-derived host, or HEK-293
Description: (§1) ScanEDGE kinase assays paneling specificity across a panel of 96 representative kinases were performed by DiscoverX (Fremont, CA). For most assays, kinase-tagged T7 phage strains were grown in parallel in 24-well blocks in an E. coli host derived from the BL21 strain. Bacteria were grown to log phase and infected with T7 phage from frozen stock (MOI=0.4) and incubated with shaking at 32° C. until lysis (90-150 minutes). The lysates were centrifuged (6000×g) and filtered (0.2 μm) to remove cell debris. The remaining kinases were produced in HEK-293 cells and subsequently tagged with DNA for qPCR detection. […] The liganded beads were blocked with excess biotin and washing with blocking buffer (SeaBlock (Pierce), 1% BSA, 0.05% Tween 20, 1 mM DTT) to remove unbound ligand and to reduce non-specific phage binding. […] Test compounds were prepared as 40× stocks in 100% DMSO and directly diluted into the assay. All reactions were performed in polypropylene 384 well plates in a final volume of 40 μl. […] The kinase concentration in the eluates was measured by qPCR.

RIOK2 = target: T2, RIOK2 (Homo sapiens, UniProt Q9BVS4); assay: ScanEDGE kinase panel (DiscoverX); format: binding; conditions: read-out: % of control activity at 71 nM
T2 construct: T7 phage fusion (most kinases) or DNA tag after HEK-293 expression; purchased DiscoverX (Fremont, CA), ScanEDGE; host or cells: T7 phage in E. coli BL21-derived host, or HEK-293
Description: as §1

RIPK2 = target: T3, RIPK2 (Homo sapiens, UniProt O43353); assay: ScanEDGE kinase panel (DiscoverX); format: binding; conditions: read-out: % of control activity at 71 nM
T3 construct: T7 phage fusion (most kinases) or DNA tag after HEK-293 expression; purchased DiscoverX (Fremont, CA), ScanEDGE; host or cells: T7 phage in E. coli BL21-derived host, or HEK-293
Description: as §1

RSK2 = target: T4, RSK2 (Homo sapiens, UniProt P51812); assay: ScanEDGE kinase panel (DiscoverX); format: binding; conditions: read-out: % of control activity at 71 nM
T4 construct: T7 phage fusion (most kinases) or DNA tag after HEK-293 expression; purchased DiscoverX (Fremont, CA), ScanEDGE; host or cells: T7 phage in E. coli BL21-derived host, or HEK-293
Description: as §1

SIK2 = target: T5, SIK2 (Homo sapiens, UniProt Q9H0K1); assay: ScanEDGE kinase panel (DiscoverX); format: binding; conditions: read-out: % of control activity at 71 nM
T5 construct: T7 phage fusion (most kinases) or DNA tag after HEK-293 expression; purchased DiscoverX (Fremont, CA), ScanEDGE; host or cells: T7 phage in E. coli BL21-derived host, or HEK-293
Description: as §1

SRC = target: T6, SRC (Homo sapiens, UniProt P12931); assay: ScanEDGE kinase panel (DiscoverX); format: binding; conditions: read-out: % of control activity at 71 nM
T6 construct: T7 phage fusion (most kinases) or DNA tag after HEK-293 expression; purchased DiscoverX (Fremont, CA), ScanEDGE; host or cells: T7 phage in E. coli BL21-derived host, or HEK-293
Description: as §1

TSSK1B = target: T7, TSSK1B (Homo sapiens, UniProt Q9BXA7); assay: ScanEDGE kinase panel (DiscoverX); format: binding; conditions: read-out: % of control activity at 71 nM
T7 construct: T7 phage fusion (most kinases) or DNA tag after HEK-293 expression; purchased DiscoverX (Fremont, CA), ScanEDGE; host or cells: T7 phage in E. coli BL21-derived host, or HEK-293
Description: as §1

ULK2 = target: T8, ULK2 (Homo sapiens, UniProt Q8IYT8); assay: ScanEDGE kinase panel (DiscoverX); format: binding; conditions: read-out: % of control activity at 71 nM
T8 construct: T7 phage fusion (most kinases) or DNA tag after HEK-293 expression; purchased DiscoverX (Fremont, CA), ScanEDGE; host or cells: T7 phage in E. coli BL21-derived host, or HEK-293
Description: as §1

YANK3 = target: T9, YANK3 (Homo sapiens, UniProt Q86UX6); assay: ScanEDGE kinase panel (DiscoverX); format: binding; conditions: read-out: % of control activity at 71 nM
T9 construct: T7 phage fusion (most kinases) or DNA tag after HEK-293 expression; purchased DiscoverX (Fremont, CA), ScanEDGE; host or cells: T7 phage in E. coli BL21-derived host, or HEK-293
Description: as §1

p38-beta = target: T10, p38-beta (Homo sapiens, UniProt Q15759); assay: ScanEDGE kinase panel (DiscoverX); format: binding; conditions: read-out: % of control activity at 71 nM
T10 construct: T7 phage fusion (most kinases) or DNA tag for qPCR (kinases made in HEK-293); purchased DiscoverX; host or cells: E. coli BL21-derived host (T7 phage) or HEK-293
Description: as §1

Ocy454 cells [1] = assay: Immunoblotting of Ocy454 cell lysates (HDAC4/5, CRTC2, SIK2 phosphorylation and localisation); format: cell-based, mouse
Ocy454 cells [2] = assay: Gene expression in Ocy454 cells by RT-qPCR; format: cell-based, mouse
[3] = control vs SIK2/3 deficient cells, 0.5 μM, 4 hours

T7 sequence (Q9BXA7 whole entry, the tested form may be a part): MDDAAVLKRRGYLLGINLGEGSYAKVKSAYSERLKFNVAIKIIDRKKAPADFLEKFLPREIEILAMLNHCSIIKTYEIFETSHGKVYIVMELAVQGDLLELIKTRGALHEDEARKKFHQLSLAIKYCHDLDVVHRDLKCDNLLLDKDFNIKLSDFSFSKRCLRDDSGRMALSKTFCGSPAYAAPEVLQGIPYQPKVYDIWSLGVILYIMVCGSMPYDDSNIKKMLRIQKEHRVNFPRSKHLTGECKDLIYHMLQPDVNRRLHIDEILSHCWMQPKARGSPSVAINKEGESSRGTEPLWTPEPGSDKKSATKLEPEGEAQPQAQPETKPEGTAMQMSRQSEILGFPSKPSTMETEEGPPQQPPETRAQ
T3 sequence (O43353 whole entry, the tested form may be a part): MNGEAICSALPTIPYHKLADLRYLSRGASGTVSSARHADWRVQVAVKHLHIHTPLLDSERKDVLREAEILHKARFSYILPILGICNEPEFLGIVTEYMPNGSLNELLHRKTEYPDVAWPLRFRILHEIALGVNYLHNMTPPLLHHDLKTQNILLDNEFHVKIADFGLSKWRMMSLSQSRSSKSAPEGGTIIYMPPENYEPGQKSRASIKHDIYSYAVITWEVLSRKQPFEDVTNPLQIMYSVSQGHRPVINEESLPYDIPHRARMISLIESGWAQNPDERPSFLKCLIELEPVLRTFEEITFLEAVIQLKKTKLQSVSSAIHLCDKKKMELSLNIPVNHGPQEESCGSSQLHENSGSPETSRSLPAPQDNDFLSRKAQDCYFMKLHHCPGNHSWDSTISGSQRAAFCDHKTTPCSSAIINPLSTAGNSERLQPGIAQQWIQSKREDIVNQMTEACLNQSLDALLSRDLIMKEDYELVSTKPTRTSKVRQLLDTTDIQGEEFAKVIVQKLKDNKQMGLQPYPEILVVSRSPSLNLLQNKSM
T9 sequence (Q86UX6 whole entry, the tested form may be a part): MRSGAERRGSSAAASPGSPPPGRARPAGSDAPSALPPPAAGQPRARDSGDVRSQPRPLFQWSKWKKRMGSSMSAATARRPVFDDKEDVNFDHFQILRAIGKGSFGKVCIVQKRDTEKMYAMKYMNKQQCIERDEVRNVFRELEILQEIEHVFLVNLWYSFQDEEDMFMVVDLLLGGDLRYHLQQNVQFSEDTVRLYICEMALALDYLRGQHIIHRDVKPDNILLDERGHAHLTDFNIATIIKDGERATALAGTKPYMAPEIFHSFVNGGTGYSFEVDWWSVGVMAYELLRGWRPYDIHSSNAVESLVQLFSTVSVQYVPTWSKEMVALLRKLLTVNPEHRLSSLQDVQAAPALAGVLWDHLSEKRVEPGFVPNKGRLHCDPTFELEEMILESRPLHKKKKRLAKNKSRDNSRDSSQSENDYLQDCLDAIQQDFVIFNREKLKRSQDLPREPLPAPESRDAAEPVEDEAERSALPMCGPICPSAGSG
T4 sequence (P51812 39-397 limits assumed): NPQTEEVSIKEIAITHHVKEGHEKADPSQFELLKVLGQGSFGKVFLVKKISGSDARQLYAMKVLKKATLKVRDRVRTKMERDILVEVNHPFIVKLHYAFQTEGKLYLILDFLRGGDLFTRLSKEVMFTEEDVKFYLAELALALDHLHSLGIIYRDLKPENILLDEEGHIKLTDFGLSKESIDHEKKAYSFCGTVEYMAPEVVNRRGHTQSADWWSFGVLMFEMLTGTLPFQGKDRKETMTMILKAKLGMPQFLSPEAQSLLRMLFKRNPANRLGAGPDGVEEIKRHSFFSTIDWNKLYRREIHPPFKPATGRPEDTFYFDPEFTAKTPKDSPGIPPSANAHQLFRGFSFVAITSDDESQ
T10 sequence (Q15759 whole entry, the tested form may be a part): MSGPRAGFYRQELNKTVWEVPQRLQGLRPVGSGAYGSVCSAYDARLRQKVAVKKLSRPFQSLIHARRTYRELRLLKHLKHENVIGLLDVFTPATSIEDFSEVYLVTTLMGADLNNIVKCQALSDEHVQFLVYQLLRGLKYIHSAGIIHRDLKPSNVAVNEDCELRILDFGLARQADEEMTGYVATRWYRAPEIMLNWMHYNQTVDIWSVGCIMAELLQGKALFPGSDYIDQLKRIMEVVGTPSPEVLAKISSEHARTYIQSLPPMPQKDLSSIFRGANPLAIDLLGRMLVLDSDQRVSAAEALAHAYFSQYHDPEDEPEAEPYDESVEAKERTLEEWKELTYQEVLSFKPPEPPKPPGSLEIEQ
T2 sequence (Q9BVS4 whole entry, the tested form may be a part): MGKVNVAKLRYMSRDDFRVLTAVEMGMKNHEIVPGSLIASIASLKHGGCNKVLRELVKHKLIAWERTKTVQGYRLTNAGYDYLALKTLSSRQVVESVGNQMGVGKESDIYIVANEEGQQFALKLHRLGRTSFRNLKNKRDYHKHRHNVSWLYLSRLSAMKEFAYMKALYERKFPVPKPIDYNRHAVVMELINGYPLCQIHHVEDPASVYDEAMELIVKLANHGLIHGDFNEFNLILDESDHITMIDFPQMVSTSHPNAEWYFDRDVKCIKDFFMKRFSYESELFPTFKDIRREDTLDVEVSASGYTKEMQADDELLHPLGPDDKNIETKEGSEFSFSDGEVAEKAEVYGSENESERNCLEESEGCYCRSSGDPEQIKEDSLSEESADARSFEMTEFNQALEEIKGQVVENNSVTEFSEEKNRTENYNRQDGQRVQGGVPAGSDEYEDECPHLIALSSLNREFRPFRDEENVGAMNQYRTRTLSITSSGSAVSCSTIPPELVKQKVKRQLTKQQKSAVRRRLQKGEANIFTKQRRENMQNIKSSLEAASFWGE
T8 sequence (Q8IYT8 whole entry, the tested form may be a part): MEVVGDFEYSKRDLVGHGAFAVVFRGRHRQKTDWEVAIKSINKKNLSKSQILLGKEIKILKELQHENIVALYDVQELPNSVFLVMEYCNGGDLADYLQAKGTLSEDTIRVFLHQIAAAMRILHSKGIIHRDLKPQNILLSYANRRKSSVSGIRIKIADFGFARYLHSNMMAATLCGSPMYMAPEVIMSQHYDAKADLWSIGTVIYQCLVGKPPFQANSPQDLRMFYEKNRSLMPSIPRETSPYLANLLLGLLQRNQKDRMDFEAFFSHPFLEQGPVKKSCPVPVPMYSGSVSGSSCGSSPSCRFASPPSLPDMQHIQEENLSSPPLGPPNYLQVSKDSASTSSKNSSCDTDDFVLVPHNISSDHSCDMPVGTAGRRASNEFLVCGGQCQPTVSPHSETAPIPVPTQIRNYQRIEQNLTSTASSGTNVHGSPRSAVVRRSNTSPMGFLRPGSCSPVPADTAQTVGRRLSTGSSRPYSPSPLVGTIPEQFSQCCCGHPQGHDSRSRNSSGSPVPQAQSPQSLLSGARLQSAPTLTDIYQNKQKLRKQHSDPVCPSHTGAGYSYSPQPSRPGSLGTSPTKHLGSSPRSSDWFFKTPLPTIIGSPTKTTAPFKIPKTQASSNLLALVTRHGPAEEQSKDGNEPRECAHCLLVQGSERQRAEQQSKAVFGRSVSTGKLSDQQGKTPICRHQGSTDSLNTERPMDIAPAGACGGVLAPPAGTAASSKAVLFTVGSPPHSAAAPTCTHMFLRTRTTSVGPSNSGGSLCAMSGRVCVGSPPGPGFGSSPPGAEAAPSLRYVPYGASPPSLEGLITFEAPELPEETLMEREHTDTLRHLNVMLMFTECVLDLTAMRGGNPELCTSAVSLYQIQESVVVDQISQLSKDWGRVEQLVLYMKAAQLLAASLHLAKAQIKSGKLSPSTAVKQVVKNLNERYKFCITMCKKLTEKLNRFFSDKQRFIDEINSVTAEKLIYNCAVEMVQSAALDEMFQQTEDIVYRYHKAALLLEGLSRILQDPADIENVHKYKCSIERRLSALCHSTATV
T5 sequence (Q9H0K1 whole entry, the tested form may be a part): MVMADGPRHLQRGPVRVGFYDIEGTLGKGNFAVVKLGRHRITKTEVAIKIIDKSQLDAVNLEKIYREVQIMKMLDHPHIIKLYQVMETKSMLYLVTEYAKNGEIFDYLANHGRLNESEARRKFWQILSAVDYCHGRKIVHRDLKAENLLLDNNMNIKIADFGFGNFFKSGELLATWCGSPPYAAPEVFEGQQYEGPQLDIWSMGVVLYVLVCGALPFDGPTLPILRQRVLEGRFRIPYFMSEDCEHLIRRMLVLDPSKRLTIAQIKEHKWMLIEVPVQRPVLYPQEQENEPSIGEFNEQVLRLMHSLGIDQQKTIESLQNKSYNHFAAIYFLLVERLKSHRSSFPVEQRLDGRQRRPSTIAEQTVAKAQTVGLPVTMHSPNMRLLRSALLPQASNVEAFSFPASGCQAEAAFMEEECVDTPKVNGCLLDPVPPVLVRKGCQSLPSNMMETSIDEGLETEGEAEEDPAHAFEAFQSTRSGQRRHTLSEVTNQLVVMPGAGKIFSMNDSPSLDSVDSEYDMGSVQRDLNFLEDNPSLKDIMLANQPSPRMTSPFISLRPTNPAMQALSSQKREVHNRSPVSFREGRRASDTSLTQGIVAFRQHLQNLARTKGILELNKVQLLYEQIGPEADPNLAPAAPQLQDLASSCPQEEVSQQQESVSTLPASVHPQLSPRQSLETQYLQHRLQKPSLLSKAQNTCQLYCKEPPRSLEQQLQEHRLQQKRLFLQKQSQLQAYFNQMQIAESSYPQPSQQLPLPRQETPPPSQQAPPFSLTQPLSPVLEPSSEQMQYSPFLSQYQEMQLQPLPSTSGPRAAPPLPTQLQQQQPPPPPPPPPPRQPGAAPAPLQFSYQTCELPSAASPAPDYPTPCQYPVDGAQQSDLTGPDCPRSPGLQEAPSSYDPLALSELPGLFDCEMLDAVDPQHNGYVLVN

For `COc1ccc(N2C(=O)N(c3c(C)cccc3C)Cc3cnc(Nc4ccc(C5CCN(C)CC5)c(OC)c4)nc32)c(OC)c1` [YKL-05-093], the remaining binding at 0.071 µM (RET) was 3.6%, the remaining binding at 0.071 µM (RIOK2) was 77% and the remaining binding at 0.071 µM (RIPK2) was 16%. For the same molecule, the remaining binding at 0.071 µM (RSK2) was 51%, the remaining binding at 0.071 µM (SIK2) was 10% and the remaining binding at 0.071 µM (SRC) was 0%. The remaining binding at 0.071 µM (TSSK1B) was 83%, the remaining binding at 0.071 µM (ULK2) was 31% and the remaining binding at 0.071 µM (YANK3) was 95%. For the same molecule, the remaining binding at 0.071 µM (p38-beta) was 47%, the “SIK2 S358 phosphorylation” value (Ocy454 cells [1]; control and Gsα-deficient Ocy454 cells, 10 μM, 30 minutes) was “did not increase SIK2 S358 phosphorylation” and the “HDAC4 S246 phosphorylation” value (Ocy454 cells [1]; osteocytes lacking SIK2 and SIK3, 10 μM for 45 minutes) was “did not decrease HDAC4 S246 phosphorylation”. The RANKL expression (Ocy454 cells [2]; FIG. 5E) was “RANKL up-regulation”, the SOST expression (Ocy454 cells [2]; FIG. 5E) was “rapid and potent SOST suppression” and the RANKL expression (Ocy454 cells [2]; Gsα-deficient Ocy454, 0.5 μM) was “RANKL up-regulation with effects similar to forskolin”. For the same molecule, the SOST expression (Ocy454 cells [2]; Gsα-deficient Ocy454, 0.5 μM) was “SOST suppression”, the “stimulation of RANKL expression” value (Ocy454 cells [2]; cells lacking CRTC2, PTH 1 nM or YKL-05-093 0.5 μM, 4 hours) was “abrogated” and the “genes measured with SIK2/3-dependent regulation” value (Ocy454 cells [2]; [3]) was 13/19. For the same molecule, the “genes measured with regulation independent of the presence of SIK2/3” value (Ocy454 cells [2]; [3]) was 6/19 and the SOST expression (Ocy454 cells [2]; osteocytes lacking SIK2 and SIK3, 0.5 μM, 4 hours) was “did not decrease HDAC4 S246 phosphorylation or cause SOST suppression”.
